≈ marks a conversion by molar mass, not a printed value. Calls of active or inactive are those of the source. The calls are words filed in the database; no cut-off is given here.
What was measured:
[1] = target: C-C chemokine receptor type 2 (Homo sapiens) (UniProt P41597); assay type: cell-based; details: HEK293
[2] = target: T1, C-X-C chemokine receptor type 2 (Homo sapiens) (UniProt P25025); assay type: cell-based; details: neutrophils
T1 sequence (whole entry): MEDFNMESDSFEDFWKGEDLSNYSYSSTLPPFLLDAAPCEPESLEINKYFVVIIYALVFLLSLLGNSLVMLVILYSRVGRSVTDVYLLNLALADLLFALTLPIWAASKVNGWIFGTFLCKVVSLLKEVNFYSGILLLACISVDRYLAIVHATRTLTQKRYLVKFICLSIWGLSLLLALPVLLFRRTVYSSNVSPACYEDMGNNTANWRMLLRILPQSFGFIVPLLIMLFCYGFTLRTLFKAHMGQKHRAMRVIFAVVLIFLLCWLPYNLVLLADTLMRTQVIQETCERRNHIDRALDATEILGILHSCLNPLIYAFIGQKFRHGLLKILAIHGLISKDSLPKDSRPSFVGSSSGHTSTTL

[3] = Aqueous solubility of the compound at pH 1.2; assay type: physicochemical
[4] = target: T2, C5a anaphylatoxin chemotactic receptor 1 (Homo sapiens) (UniProt P21730); assay type: cell-based; details: CHO
T2 sequence (whole entry): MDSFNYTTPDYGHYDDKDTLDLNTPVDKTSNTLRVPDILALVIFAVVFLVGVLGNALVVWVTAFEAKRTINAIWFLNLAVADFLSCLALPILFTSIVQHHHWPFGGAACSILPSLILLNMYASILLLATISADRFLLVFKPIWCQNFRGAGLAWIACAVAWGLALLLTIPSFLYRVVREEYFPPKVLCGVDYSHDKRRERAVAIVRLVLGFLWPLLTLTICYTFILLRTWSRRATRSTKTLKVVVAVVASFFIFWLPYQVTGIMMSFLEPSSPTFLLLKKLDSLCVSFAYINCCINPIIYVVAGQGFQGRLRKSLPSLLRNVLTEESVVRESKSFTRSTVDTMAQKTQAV

THP-1 = assay: Cytotoxicity against human THP1 cells; assay type: cell-based
[5] = target: C-C chemokine receptor type 2 (Homo sapiens) (UniProt P41597); assay type: cell-based; details: THP-1
[6] = Aqueous solubility of the compound at pH 7.4; assay type: physicochemical
[7] = target: T3, C-X-C chemokine receptor type 1 (Homo sapiens) (UniProt P25024); assay type: cell-based; details: neutrophils
T3 sequence (whole entry): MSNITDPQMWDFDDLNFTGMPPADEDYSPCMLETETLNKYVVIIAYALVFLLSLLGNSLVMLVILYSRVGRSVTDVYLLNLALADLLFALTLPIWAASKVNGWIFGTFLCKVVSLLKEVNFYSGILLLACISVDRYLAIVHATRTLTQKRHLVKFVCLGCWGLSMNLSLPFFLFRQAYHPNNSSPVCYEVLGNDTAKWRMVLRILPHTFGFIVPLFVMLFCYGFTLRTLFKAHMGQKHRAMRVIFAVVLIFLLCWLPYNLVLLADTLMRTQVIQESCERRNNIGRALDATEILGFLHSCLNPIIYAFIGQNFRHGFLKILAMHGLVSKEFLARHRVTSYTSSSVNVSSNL

Chain of C-C chemokine receptor type 2 (Homo sapiens) (P41597 whole entry, looked up): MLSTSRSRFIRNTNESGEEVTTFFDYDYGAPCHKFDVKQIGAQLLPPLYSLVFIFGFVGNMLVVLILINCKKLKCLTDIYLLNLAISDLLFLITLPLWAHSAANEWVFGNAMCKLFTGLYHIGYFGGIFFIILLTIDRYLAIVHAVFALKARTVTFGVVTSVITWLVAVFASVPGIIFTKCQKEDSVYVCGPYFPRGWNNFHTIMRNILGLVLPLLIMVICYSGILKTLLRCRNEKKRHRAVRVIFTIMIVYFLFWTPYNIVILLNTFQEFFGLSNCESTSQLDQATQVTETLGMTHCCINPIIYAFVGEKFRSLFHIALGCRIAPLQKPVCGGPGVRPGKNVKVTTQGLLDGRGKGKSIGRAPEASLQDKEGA

Cc1nn(C)c2ncc(C(=O)NC(=O)Nc3ccc(F)c(C(F)(F)F)c3)cc12
Activity [1]: inactive
Activity [2]: inactive
solubility [3]: 3.9 µg/mL (≈ 9.87 µM)
Activity [4]: inactive
CC50 (THP-1): > 50 µM
Activity [5]: inactive
solubility [6]: 5 µg/mL (≈ 12.6 µM)
Activity [7]: inactive

Source: ChEMBL document CHEMBL1687928, “Discovery, optimization, and pharmacological characterization of novel heteroaroylphenylureas antagonists of C-C chemokine ligand 2 function” (J Med Chem, 2011)
